According to ChEMBL document CHEMBL1159270, “Bruceosides D, E, and F, three new cytotoxic quassinoid glucosides from Brucea javanica” (1995):

Assays:
Assay type in all cases: functional
CCRF-CEM = assay: Growth inhibition of human CCRF-CEM cells
HL-60(TB) = assay: Growth inhibition of human HL-60(TB) cells
K562 = assay: Growth inhibition of human K562 cells
MOLT-4 = assay: Growth inhibition of human MOLT4 cells
EKVX = assay: Growth inhibition of human EKVX cells
HOP-62 = assay: Growth inhibition of human HOP62 cells
HOP-92 = assay: Growth inhibition of human HOP92 cells
NCI-H226 = assay: Growth inhibition of human NCI-H226 cells
NCI-H23 = assay: Growth inhibition of human NCI-H23 cells
NCI-H322M = assay: Growth inhibition of human NCI-H322M cells
NCI-H460 = assay: Growth inhibition of human NCI-H460 cells
NCI-H522 = assay: Growth inhibition of human NCI-H522 cells
COLO 205 = assay: Growth inhibition of human COLO205 cells
HCC 2998 = assay: Growth inhibition of human HCC2998 cells
HCT-116 = assay: Growth inhibition of human HCT116 cells
HCT-15 = assay: Growth inhibition of human HCT15 cells
HT-29 = assay: Growth inhibition of human HT-29 cells
KM12 = assay: Growth inhibition of human KM12 cells
SW-620 = assay: Growth inhibition of human SW620 cells
SF-268 = assay: Growth inhibition of human SF268 cells
SF-539 = assay: Growth inhibition of human SF539 cells
SNB-19 = assay: Growth inhibition of human SNB19 cells
SNB-75 = assay: Growth inhibition of human SNB75 cells
U-251 = assay: Growth inhibition of human U251 cells
LOX IMVI = assay: Growth inhibition of human LOXIMVI cells
Malme-3M = assay: Growth inhibition of human MALME-3M cells
M14 = assay: Growth inhibition of human M14 cells
SK-MEL-2 = assay: Growth inhibition of human SK-MEL-2 cells
SK-MEL-28 = assay: Growth inhibition of human SK-MEL-28 cells
SK-MEL-5 = assay: Growth inhibition of human SK-MEL-5 cells
UACC-257 = assay: Growth inhibition of human UACC257 cells
UACC-62 = assay: Growth inhibition of human UACC62 cells
IGROV-1 = assay: Growth inhibition of human IGROV1 cells
OVCAR-3 = assay: Growth inhibition of human OVCAR-3 cells
OVCAR-4 = assay: Growth inhibition of human OVCAR4 cells
OVCAR-5 = assay: Growth inhibition of human OVCAR5 cells
OVCAR-8 = assay: Growth inhibition of human OVCAR8 cells
SK-OV-3 = assay: Growth inhibition of human SKOV3 cells
786-0 = assay: Growth inhibition of human 786-0 cells
A498 = assay: Growth inhibition of human A498 cells
ACHN = assay: Growth inhibition of human ACHN cells
CAKI-1 = assay: Growth inhibition of human Caki1 cells
RXF 393 = assay: Growth inhibition of human RXF393 cells
SN12C = assay: Growth inhibition of human SN12C cells
TK-10 = assay: Growth inhibition of human TK10 cells
UO-31 = assay: Growth inhibition of human UO31 cells
SR = assay: Growth inhibition of human SR cells
A549 = assay: Growth inhibition of human A549 cells
PC-3 = assay: Growth inhibition of human PC3 cells
DU-145 = assay: Growth inhibition of human DU145 cells
MCF7 = assay: Growth inhibition of human MCF7 cells
[1] = Growth inhibition of human MCF7/ADR cells; details: NCI/ADR-RES
MDA-MB-231 = assay: Growth inhibition of human MDA-MB-231 cells
[2] = Growth inhibition of human Hs 578T cells
MDA-MB-435 = assay: Growth inhibition of human MDA-MB-435 cells
MDA-N = assay: Growth inhibition of human MDA-N cells
BT-549 = assay: Growth inhibition of human BT549 cells
T47D = assay: Growth inhibition of human T47D cells

Structure (SMILES): CC(C)=CC(=O)O[C@H]1C(=O)O[C@@H]2C[C@H]3[C@H](C)C(=O)C(O[C@@H]4O[C@H](CO)[C@@H](O)[C@H](O)[C@H]4O)=C[C@]3(C)[C@H]3[C@@H](O)[C@H](O)[C@]4(C(=O)O)OC[C@]32[C@@H]14 [BRUCEOSIDE D]
- GI50 (CCRF-CEM): 36.3 µM
- GI50 (HL-60(TB)): 35.5 µM
- GI50 (K562): 25.7 µM
- GI50 (MOLT-4): 22.4 µM
- GI50 (EKVX): > 100 µM
- GI50 (HOP-62): 33.1 µM
- GI50 (HOP-92): 31.6 µM
- GI50 (NCI-H226): 28.2 µM
- GI50 (NCI-H23): > 100 µM
- GI50 (NCI-H322M): > 100 µM
- GI50 (NCI-H460): 32.4 µM
- GI50 (NCI-H522): 28.8 µM
- GI50 (COLO 205): > 100 µM
- GI50 (HCC 2998): 24.5 µM
- GI50 (HCT-116): 29.5 µM
- GI50 (HCT-15): > 100 µM
- GI50 (HT-29): 35.5 µM
- GI50 (KM12): 49 µM
- GI50 (SW-620): > 100 µM
- GI50 (SF-268): > 100 µM
- GI50 (SF-539): 26.3 µM
- GI50 (SNB-19): 31.6 µM
- GI50 (SNB-75): > 100 µM
- GI50 (U-251): 39.8 µM
- GI50 (LOX IMVI): 40.7 µM
- GI50 (Malme-3M): 24 µM
- GI50 (M14): 32.4 µM
- GI50 (SK-MEL-2): > 100 µM
- GI50 (SK-MEL-28): 37.2 µM
- GI50 (SK-MEL-5): 42.7 µM
- GI50 (UACC-257): > 100 µM
- GI50 (UACC-62): > 100 µM
- GI50 (IGROV-1): > 100 µM
- GI50 (OVCAR-3): 20.4 µM
- GI50 (OVCAR-4): 25.1 µM
- GI50 (OVCAR-5): > 100 µM
- GI50 (OVCAR-8): > 100 µM
- GI50 (SK-OV-3): > 100 µM
- GI50 (786-0): > 100 µM
- GI50 (A498): > 100 µM
- GI50 (ACHN): > 100 µM
- GI50 (CAKI-1): > 100 µM
- GI50 (RXF 393): 25.1 µM
- GI50 (SN12C): > 100 µM
- GI50 (TK-10): > 100 µM
- GI50 (UO-31): 31.6 µM
- GI50 (SR): 30.9 µM
- GI50 (A549): 55 µM
- GI50 (PC-3): > 100 µM
- GI50 (DU-145): > 100 µM
- GI50 (MCF7): 22.4 µM
- GI50 [1]: > 100 µM
- GI50 (MDA-MB-231): > 100 µM
- GI50 [2]: > 100 µM
- GI50 (MDA-MB-435): > 100 µM
- GI50 (MDA-N): > 100 µM
- GI50 (BT-549): > 100 µM
- GI50 (T47D): > 100 µM

Structure (SMILES): CC(C)CC(=O)O[C@H]1C(=O)O[C@@H]2C[C@H]3[C@H](C)C(=O)C(O[C@@H]4O[C@H](CO)[C@@H](O)[C@H](O)[C@H]4O)=C[C@]3(C)[C@H]3[C@@H](O)[C@H](O)[C@]4(C(=O)O)OC[C@]32[C@@H]14 [BRUCEOSIDE E]
- GI50 (CCRF-CEM): 24.5 µM
- GI50 (HL-60(TB)): 41.7 µM
- GI50 (K562): 24 µM
- GI50 (MOLT-4): 19.1 µM
- GI50 (EKVX): > 100 µM
- GI50 (HOP-62): 44.7 µM
- GI50 (HOP-92): 37.2 µM
- GI50 (NCI-H226): 29.5 µM
- GI50 (NCI-H23): > 100 µM
- GI50 (NCI-H322M): > 100 µM
- GI50 (NCI-H460): 27.5 µM
- GI50 (NCI-H522): 2.19 µM
- GI50 (COLO 205): > 100 µM
- GI50 (HCC 2998): 20.4 µM
- GI50 (HCT-116): 33.1 µM
- GI50 (HCT-15): > 100 µM
- GI50 (HT-29): 33.9 µM
- GI50 (KM12): > 100 µM
- GI50 (SW-620): > 100 µM
- GI50 (SF-268): > 100 µM
- GI50 (SF-539): 20.4 µM
- GI50 (SNB-19): 31.6 µM
- GI50 (SNB-75): > 100 µM
- GI50 (U-251): 31.6 µM
- GI50 (LOX IMVI): 38.9 µM
- GI50 (Malme-3M): 22.9 µM
- GI50 (M14): > 100 µM
- GI50 (SK-MEL-2): > 100 µM
- GI50 (SK-MEL-28): 25.1 µM
- GI50 (SK-MEL-5): 28.2 µM
- GI50 (UACC-257): > 100 µM
- GI50 (UACC-62): > 100 µM
- GI50 (IGROV-1): 35.5 µM
- GI50 (OVCAR-3): 36.3 µM
- GI50 (OVCAR-4): 1.91 µM
- GI50 (OVCAR-5): > 100 µM
- GI50 (OVCAR-8): > 100 µM
- GI50 (SK-OV-3): > 100 µM
- GI50 (786-0): > 100 µM
- GI50 (A498): > 100 µM
- GI50 (ACHN): > 100 µM
- GI50 (CAKI-1): > 100 µM
- GI50 (RXF 393): 10.7 µM
- GI50 (SN12C): > 100 µM
- GI50 (TK-10): > 100 µM
- GI50 (UO-31): > 100 µM
- GI50 (SR): 33.9 µM
- GI50 (A549): 41.7 µM
- GI50 (PC-3): > 100 µM
- GI50 (DU-145): > 100 µM
- GI50 (MCF7): 28.2 µM
- GI50 [1]: > 100 µM
- GI50 (MDA-MB-231): > 100 µM
- GI50 [2]: 39.8 µM
- GI50 (MDA-MB-435): > 100 µM
- GI50 (MDA-N): > 100 µM
- GI50 (BT-549): > 100 µM
- GI50 (T47D): > 100 µM

Structure (SMILES): CC(=O)OC(C)(C)/C(C)=C/C(=O)O[C@H]1C(=O)O[C@@H]2C[C@H]3[C@H](C)C(=O)C(O[C@@H]4O[C@H](CO)[C@@H](O)[C@H](O)[C@H]4O)=C[C@]3(C)[C@H]3[C@@H](O)[C@H](O)[C@]4(C(=O)O)OC[C@]32[C@@H]14 [BRUCEOSIDE F]
- GI50 (CCRF-CEM): 43.7 µM
- GI50 (HL-60(TB)): 47.9 µM
- GI50 (K562): 39.8 µM
- GI50 (MOLT-4): 33.9 µM
- GI50 (EKVX): > 100 µM
- GI50 (HOP-62): 69.2 µM
- GI50 (HOP-92): 66.1 µM
- GI50 (NCI-H226): 72.4 µM
- GI50 (NCI-H23): > 100 µM
- GI50 (NCI-H322M): > 100 µM
- GI50 (NCI-H460): 39.8 µM
- GI50 (NCI-H522): 18.6 µM
- GI50 (COLO 205): > 100 µM
- GI50 (HCC 2998): 36.3 µM
- GI50 (HCT-116): 38 µM
- GI50 (HCT-15): > 100 µM
- GI50 (HT-29): > 100 µM
- GI50 (KM12): > 100 µM
- GI50 (SW-620): > 100 µM
- GI50 (SF-268): > 100 µM
- GI50 (SF-539): 56.2 µM
- GI50 (SNB-19): > 100 µM
- GI50 (SNB-75): > 100 µM
- GI50 (U-251): > 100 µM
- GI50 (LOX IMVI): > 100 µM
- GI50 (Malme-3M): 56.2 µM
- GI50 (M14): > 100 µM
- GI50 (SK-MEL-2): > 100 µM
- GI50 (SK-MEL-28): > 100 µM
- GI50 (SK-MEL-5): > 100 µM
- GI50 (UACC-257): > 100 µM
- GI50 (UACC-62): > 100 µM
- GI50 (IGROV-1): > 100 µM
- GI50 (OVCAR-3): 25.7 µM
- GI50 (OVCAR-4): > 100 µM
- GI50 (OVCAR-5): > 100 µM
- GI50 (OVCAR-8): > 100 µM
- GI50 (SK-OV-3): > 100 µM
- GI50 (786-0): > 100 µM
- GI50 (A498): > 100 µM
- GI50 (ACHN): > 100 µM
- GI50 (CAKI-1): > 100 µM
- GI50 (RXF 393): 37.2 µM
- GI50 (SN12C): > 100 µM
- GI50 (TK-10): > 100 µM
- GI50 (UO-31): > 100 µM
- GI50 (SR): 49 µM
- GI50 (A549): > 100 µM
- GI50 (PC-3): > 100 µM
- GI50 (DU-145): > 100 µM
- GI50 (MCF7): 27.5 µM
- GI50 [1]: > 100 µM
- GI50 (MDA-MB-231): > 100 µM
- GI50 [2]: > 100 µM
- GI50 (MDA-MB-435): > 100 µM
- GI50 (MDA-N): > 100 µM
- GI50 (BT-549): > 100 µM
- GI50 (T47D): > 100 µM
